{"source": "patent US20070149580A1", "about": "“USE OF PEROXISOME PROLIFERATOR ACTIVATED RECEPTOR DELTA AGONISTS FOR THE TREATMENT OF MS AND OTHER DEMYELINATING DISEASES” (AVENTIS PHARMACEUTICALS INC., priority 2004, published 2007)", "tested_on": "PPAR delta pathway in cultured rat oligodendrocytes", "assay": "Quantitative PCR of PPAR delta pathway transcriptional markers (ADRP mRNA) in cultured rat oligodendrocytes", "assay_type": "cell-based", "settings": "FIG. 4B", "text": "• 1. Primary rat oligodendrocyte progenitor cells are obtained from the neocortex of newborn (postnatal days 2-3) rats or mice and are enriched, after removal of microglia, by mechanical separation from the astrocytic monolayer using a modification of the technique originally described by McCarthy and de Vellis (1980). • 2. Remove the meninges from neonatal rat brain and mechanically dissociate tissue. Plate cells on T75 flasks and feed cells with DMEM/F12+10% FBS. • 3. Collect oligodendrocytes growing on the astrocyte bed layer by shaking-off method fourteen days after the original prep date. Centrifuge the suspension and resuspend the cell pellet in serum free media (SFM; DMEM combined with 25 μg/ml transferring, 30 nM triiodothyronine, 20 nM hydrocortisone, 20 nM progesterone, 10 nM biotin, 1× trace elements, 30 nM selenium, 1 μg/ml putrescine, 0.1% BSA, 5 U/ml PenStrep, 10 μg/ml insulin) supplemented with the following growth factors: Platelet derived growth factor-AA (PDGF) and fibroblast growth factor-2 (FGF). • 4. Plate the cells on PDL-coated dishes and incubate at 37° C. with 6-7% CO2. • 5. Media components are replaced every 48 hr to keep the cells in a progenitor state. Progenitor Cell Passaging to Increase Cell Numbers for Screening Assays: • 1. […]\n• 1. […] PPAR delta pathway member transcript expression is quantitated using Sybr Green PCR Master Mix. • 4. […]", "data": [{"smiles": "Cc1cc(SCc2sc(-c3ccc(C(F)(F)F)cc3)nc2C)ccc1OCC(=O)O", "note": "[Compound 1]", "values": [{"measurement": "ADRP mRNA", "result": "upregulated"}]}]}
